Experimental findings from patent US6579900B2, “Anandamide amidase inhibitors as analgesic agents” (priority 1996, dated 2003) are described below.

Assay [1] has as its target T1, anandamide amidase (Rattus norvegicus, UniProt P97612).
T1 construct: Crude rat brain homogenate was obtained by decapitating female adult Sprague-Dawley rats, dissecting the desired tissue and homogenizing; from tissue; host or cells: crude brain homogenate of female adult Sprague-Dawley rats
T1 sequence (P97612 1-579): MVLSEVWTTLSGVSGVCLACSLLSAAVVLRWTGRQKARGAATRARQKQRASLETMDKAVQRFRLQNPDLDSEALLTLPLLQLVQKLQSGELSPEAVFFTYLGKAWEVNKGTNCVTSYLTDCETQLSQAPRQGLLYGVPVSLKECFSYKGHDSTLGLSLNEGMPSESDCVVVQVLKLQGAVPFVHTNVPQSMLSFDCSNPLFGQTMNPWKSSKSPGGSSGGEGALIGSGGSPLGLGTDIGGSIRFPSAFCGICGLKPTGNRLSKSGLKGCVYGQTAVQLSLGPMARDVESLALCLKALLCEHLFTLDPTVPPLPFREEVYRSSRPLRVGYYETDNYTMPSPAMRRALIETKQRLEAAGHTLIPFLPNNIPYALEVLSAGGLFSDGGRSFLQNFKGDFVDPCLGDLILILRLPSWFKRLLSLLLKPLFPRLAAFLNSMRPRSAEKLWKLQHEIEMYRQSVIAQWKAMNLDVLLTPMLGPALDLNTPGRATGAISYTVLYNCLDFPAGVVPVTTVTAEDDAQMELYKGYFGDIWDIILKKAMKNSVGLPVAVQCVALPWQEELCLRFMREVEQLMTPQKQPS
Kind of assay: Anandamide amidase assay in vitro, crude rat brain homogenate. In kind it is biochemical. As to the method:
The assay of the anandamide amidase in vitro was performed as described previously (Deutsch, D. G. and S. A. Chin, Biochem. Pharmacol. 46:791-796 (1993)). The indicated amount of each compound was preincubated in a buffer consisting of 300 μg of crude rat brain homogenate protein, 500 μg/ml fatty acid-free bovine serum albumin, in phosphate-buffered saline in a final volume of 1.0 ml, for 10 minutes at 37° C. Crude rat brain homogenate was obtained by decapitating female adult Sprague-Dawley rats, dissecting the desired tissue and homogenizing in five volumes of ice-cold TE (10 mM Tris-HCl, 1 mM EDTA, pH 7.6). Substrate (27.7 μM anandamide+0.2 μCi of 221 Ci/mmol [^3H]anandamide ([arachidonyl-5,6,8,9,11,12,14,15-^3H]ethanolamide)) (obtained from the National Institute on Drug Abuse) was then added and the samples incubated for 10 minutes. The reaction was quenched by the addition of chloroform:methanol (1:1) and enzyme activity was analyzed by TLC as described in Example 1.

Assay [2] concerns the target T2, anandamide amidase (Mus musculus, UniProt O08914).
T2 construct: The assay of the anandamide amidase in intact neuroblastoma cells; endogenous in cells; host or cells: N18TG2 neuroblastoma cells
T2 sequence (O08914 1-579): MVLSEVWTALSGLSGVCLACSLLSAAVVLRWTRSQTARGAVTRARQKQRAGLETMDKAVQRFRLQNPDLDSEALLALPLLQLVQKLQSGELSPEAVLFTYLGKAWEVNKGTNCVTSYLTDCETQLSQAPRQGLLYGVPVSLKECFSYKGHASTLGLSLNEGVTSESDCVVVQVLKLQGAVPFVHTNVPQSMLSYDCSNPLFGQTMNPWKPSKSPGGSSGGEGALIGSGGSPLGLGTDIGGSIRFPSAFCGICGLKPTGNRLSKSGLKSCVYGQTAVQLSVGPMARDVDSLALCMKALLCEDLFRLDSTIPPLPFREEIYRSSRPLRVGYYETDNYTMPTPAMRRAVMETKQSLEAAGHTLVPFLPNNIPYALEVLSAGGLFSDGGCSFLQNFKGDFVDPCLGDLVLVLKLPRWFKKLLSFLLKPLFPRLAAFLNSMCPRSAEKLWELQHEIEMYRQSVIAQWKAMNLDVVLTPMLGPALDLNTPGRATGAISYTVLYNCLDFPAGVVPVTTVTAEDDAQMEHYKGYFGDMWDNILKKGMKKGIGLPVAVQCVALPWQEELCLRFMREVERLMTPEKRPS
Kind of assay: Anandamide amidase assay in intact neuroblastoma cells ([3H]anandamide levels). In kind it is cell-based.
Description: The experiments were performed with 4×10^6 neuroblastoma cells (N18TG2)/6-cm dish. Experimental cells were incubated in 2 ml of media, consisting of Ham's F-12/Dulbecco's modified Eagle's medium (Life Technologies, Inc.) with penicillin, streptomycin, and gentamicin plus 10% bovine calf serum (HyClone, Logan, Utah), plus the indicated concentration of inhibitor for 20 minutes. All cells were grown at 37° in a humidified atmosphere containing 5% CO2 in air. [^3H]Anandamide (0.2 μCi of 221 Ci/mmol of [^3H]anandamide) was added and the incubation continued for 1 hour. Control cells contained no inhibitor. At the end of the incubation, the cells were washed once with cell culture media and removed from the plates, after a brief incubation with 2 ml of 0.05% trypsin in 0.53 mM EDTA solution at 37° C. The amounts of [^3H]anandamide, [^3H]phospholipids, and [^3H]arachidonate in the cells and media were quantified by liquid scintillation counting of the silica scraped from the appropriate areas of the plate after quenching the reaction with chloroform methanol (1:1), extraction of the sample from the organic phase, and TLC analysis on channeled silica gel-coated plates, with a solvent system consisting of the organic layer of an ethyl acetate:hexane:acetic acid:water (100:50:20:100) mixture.

Another assay has as its system male MF1 mice. Kind of assay: Tail flick test of analgesia ("rat flick test"). The settings on record: mouse, in vivo.
The target in another assay is T3, CB1 receptor (Rattus norvegicus, UniProt P20272).
T3 construct: brain membranes were prepared from frozen rat brains; from tissue; host or cells: membranes from frozen rat brains
T3 sequence (P20272 whole entry): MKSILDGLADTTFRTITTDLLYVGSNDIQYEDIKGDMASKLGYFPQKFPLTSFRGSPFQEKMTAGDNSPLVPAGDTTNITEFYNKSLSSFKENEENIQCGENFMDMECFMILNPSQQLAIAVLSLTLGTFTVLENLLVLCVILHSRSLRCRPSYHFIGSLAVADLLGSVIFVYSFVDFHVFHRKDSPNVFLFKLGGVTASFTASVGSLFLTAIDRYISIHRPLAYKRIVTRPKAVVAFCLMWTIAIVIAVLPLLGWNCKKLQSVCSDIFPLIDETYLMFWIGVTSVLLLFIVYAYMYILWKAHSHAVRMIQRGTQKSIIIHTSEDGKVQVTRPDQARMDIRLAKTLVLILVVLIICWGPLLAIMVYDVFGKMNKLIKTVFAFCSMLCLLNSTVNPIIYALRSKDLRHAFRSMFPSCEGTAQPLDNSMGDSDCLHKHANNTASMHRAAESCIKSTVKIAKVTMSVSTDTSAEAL
Conditions: rat brain membranes, FIG. 3; read-out: Ki in competition with [3H]CP-55940 binding to CB1.

Setting [3] is: crude rat brain homogenate, 10 min preincubation at 37° C., read-out: IC50 for inhibition of anandamide amidase.

Read-outs that look alike come from different tables or passages of the source.

Description for CB1 receptor: The filters were treated with 0.1% sodium dodecyl sulfate prior to addition of scintillation mixture and counting in a liquid scintillation counter.

Regarding `CCCCCCCCCCCCCCCCCCCCS(=O)(=O)F` [Arachidylsulfonyl fluoride, arachidylsulfonyl fluoride], the “concentration at which effective inhibitor of anandamide amidase” value at anandamide amidase [1] (crude rat brain homogenate) is “less than 100 nM”.
As for `CCCCCCCCCCCCS(=O)(=O)F` [laurylsulfonyl fluoride], on anandamide amidase [1] (setting [3]), the IC50 was under 10 nM.
Still for that read-out and setting: then `CCCCCCCCCCCCCCS(=O)(=O)F` [myristylsulfonyl fluoride], with under 10 nM.
As to `CCCCCCCCCCCCCCCCS(=O)(=O)F` [palmitylsulfonyl fluoride], the “increase of the level of undegraded anandamide” value at anandamide amidase [2] (10 nM inhibitor, intact neuroblastoma cells (N18TG2)) was found to be 55 fold. This compound also came in with an IC50 against anandamide amidase [1] of under 10 nM. Moreover, the “analgesia (in words)” value in the assay with male MF1 mice was “induce analgesia”.
Regarding `O=S(=O)(F)Cc1ccccc1` [phenylmethylsulfonyl fluoride, reference compound], the “concentration required to achieve comparable levels of anandamide amidase inhibition” value at anandamide amidase [2] (comparable to over 50% of radioactivity in anandamide, N18TG2 cells) is “greater than 10 micromolar”.
In the case of `CCCCCCCCCCCCCCCCCCS(=O)(=O)F` [stearylsulfonyl fluoride], the IC50 at anandamide amidase [1] (setting [3]) was under 10 nM.
As for arachidonyl trifluoromethyl ketone, on CB1 receptor, the Ki amounted to 1320 nM.
